This series is described as follows: Particle size distribution by laser diffraction. Format: physicochemical. The source says: When referred to herein, the term “optical diameter” indicates the size of a particle as measured by the Fraunhofer diffraction mode using a laser diffraction particle size analyzer equipped with a dry powder dispenser (e.g., Sympatec GmbH, Clasthal-Zellerfeld, Germany).
Suspending particles were manufactured by spray drying an emulsion of PFOB (perfluorooctyl bromide) and water stabilized by DSPC (1,2-Distearoyl-sn-Glycero-3-Phosphocholine). […] The particle size distribution of the suspending particles was determined by laser diffraction.
Active agent particles formed of budesonide, 16,17-(butylidenebis(oxy))-11,21-dihydroxy-(11-β,16-α)-pregna-1,4-diene-3,20-dione, were formed by micronizing budesonide using a jet mill. The particle size distribution of the budesonide (BD) was determined by laser diffraction.

As for `COc1ccc(CC(C)NCC(O)c2ccc(O)c(NC=O)c2)cc1.O=C(O)/C=C/C(=O)O` (racemic) [formoterol fumarate, (±)-2-hydroxy-5-[(1RS)-1-hydroxy-2-[[(1RS)-2-(4-methoxyphenyl)-1-methylethyl]-amino]ethyl]formanilide fumarate], the “optical diameter exhibited by 50% by volume of the particles” value is given as “smaller than 1.6 μm” and the “optical diameter exhibited by 90% by volume of the particles” value is “smaller than 3.9 μm”.

As to `C[N+]1(C)CCC(OC(=O)C(O)(c2ccccc2)C2CCCC2)C1.[Br-]` (stereo not drawn) [glycopyrrolate, Pyrrolidinium, 3-((cyclopentylhydroxyphenylacetyl)oxy)-1,1-dimethyl-, bromide], the “optical diameter exhibited by 50% by volume of the particles” value is recorded as “smaller than 2.1 μm” and the “optical diameter exhibited by 90% by volume of the particles” value is listed as “smaller than 5 μm”.

As to albuterol sulfate, the “optical diameter exhibited by 50% by volume of the particles” value is reported as “smaller than 1.5 μm” and the “optical diameter exhibited by 90% by volume of the particles” value is on record as “smaller than 3.3 μm”.
